From US9856247B2, “4-methyl-dihydropyrimidines for the treatment and prophylaxis of Hepatitis B virus infection” (Hoffmann-La Roche Inc., priority 2012, dated 2018)
pEC50: −log10 of the molar value.

Columns and labels:
[1] = Stability in mouse liver homogenate; assay type: in vitro ADME, CD-1 mouse
Description: In this experiment, fresh mouse liver sample was homogenized by adding saline (1 g liver tissue: 5 mL saline) immediately after collection. After centrifuging for 10 minutes at 14000 rpm, the pooled supernatant was used to prepare liver homogenate solutions. […] Then, they were incubated at rt. After incubation time of 0, 15 and 30 minutes, 180 μl aliquots of MeOH was added into 20 μl of homogenate, respectively. All these samples were vortex mixed for 5 minutes at 1500 rpm and centrifuged for 10 minutes at 14000 rpm. The supernatants were transferred into a 96-well plate for LC-MS/MS analysis.
The Chromatographic separation was achieved on a Chromolith Performance RP-18 endcapped (3×100 mm) at room temperature.
Data processing was performed with Agilent MassHunter Workstation Data Acquisition B.04.00 and Agilent MassHunter Workstation Qualitative Analysis B.04.00.

[2] = Incubation with human liver microsomes (metabolite formation); assay type: in vitro ADME; details: 5 μM, 1 mM NADPH, 60 minutes
Description: (§1) In this experiment, pooled liver microsomes (20 mg/ml) from human, male Wister rat and male CD-1 mouse were obtained from BD Bioscience (Franklin Lakes, N.J. USA). Incubation reaction mixtures contained a final concentration of 0.1M sodium phosphate buffer (pH 7.4), 0.5 mg/ml microsomal protein, 5 μM of the tested compounds and 1 mM NADPH in a total volume of 400 μl. The incubations were done for 60 minutes and 300 μl of the mixtures was transferred to 150 μl of ice cold methanol to terminate reactions. After vortexes for 3 minutes and centrifuged at 4000 rpm at 4° C. for 10 minutes, the clear supernatant was used directly for analysis. The samples were analyzed by Applied Biosystems API 3200 Q TRAP LC/MS/MS system using electrospray ionization mode.

[3] = Incubation with rat liver microsomes (metabolite formation); assay type: in vitro ADME, male Wister rat; details: 5 μM, 1 mM NADPH, 60 minutes
Description: as §1

[4] = Incubation with mouse liver microsomes (metabolite formation); assay type: in vitro ADME, male CD-1 mouse; details: 5 μM, 1 mM NADPH, 60 minutes
Description: as §1

[5] = tested on: HBV; details: HBV infected transgenic mouse or humanized mouse models; cited from earlier work
[6] = tested on: HBV DNA; test: Anti-HBV activity in HepDE19 cells (HBV DNA dot-blot); assay type: cell-based, Hepatitis B virus (HBV); details: Hepatitis B virus, 120 h; HepDE19 cells, five days after compound treatment, concentration that inhibited HBV DNA by 50%; read-out: HepDe19 EC50
[7] = in vitro; details: human

**Q.** For `COC(=O)C1=C(C)NC(c2ncc(F)cc2F)=N[C@H]1c1ccc(F)cc1Cl` [Bay 41-4109], which “Percentage to 0 min” value ([1]; 100 ng/mL, incubation time 0 min) is on record?
**A.** Its value is 100%.

**Q.** And the “Percentage to 0 min” value ([1]; 100 ng/mL, incubation time 15 min, rt)?
**A.** The value was 1.84%.

**Q.** And the “Percentage to 0 min” value ([1]; 300 ng/mL, incubation time 0 min)?
**A.** The value was 100%.

**Q.** What about the “Percentage to 0 min” value ([1]; 300 ng/mL, incubation time 30 min, rt) of the same compound?
**A.** The value was 0%.

**Q.** What about the “Percentage to 0 min” value ([1]; 1000 ng/mL, incubation time 0 min) of the same compound?
**A.** The value was 100%.

**Q.** And the “Percentage to 0 min” value ([1]; 1000 ng/mL, incubation time 15 min, rt)?
**A.** Its value is 1.90%.

**Q.** And the “Percentage to 0 min” value ([1]; 1000 ng/mL, incubation time 30 min, rt)?
**A.** The value was 0.16%.

**Q.** What about the “compound detected after incubation” value ([1]; 15 minutes room temperature incubation, at three different concentration levels) of the same compound?
**A.** The value was “About 2%”.

**Q.** What about the “stability in liver homogenate treated with saline” value ([1]; conclusion in words) of the same compound?
**A.** Its value is “not stable”.

**Q.** What about the “conversion to pyrimidine product XLVI” value [2] of the same compound?
**A.** Its value is “converted to XLVI”.

**Q.** What about the “conversion to pyrimidine product XLVI” value [3] of the same compound?
**A.** The value was “oxidized to pyrimidine product XLVI”.

**Q.** And the “conversion to pyrimidine product XLVI” value [4]?
**A.** The value was “oxidized to pyrimidine product XLVI”.

**Q.** What about the “in vivo efficacy (HBV DNA reduction)” value [5] of the same compound?
**A.** The value was “demonstrated in vivo efficacy with HBV DNA reduction”.

**Q.** With `COC(=O)C1=C(CN2CC(F)(F)C[C@H]2c2nnc(C)o2)NC(c2nccs2)=N[C@@]1(C)c1ccc(F)cc1` [Example 57, (S)-6-[(S)-4,4-difluoro-2-(5-methyl-[1,3,4]oxadiazol-2-yl)-pyrrolidin-1-ylmethyl]-4-(4-fluoro-phenyl)-4-methyl-2-thiazol-2-yl-1,4-dihydro-pyrimidine-5-carboxylic acid methyl ester] as the compound, how does the pEC50 [6] read?
**A.** The pEC50 was 5.81.

**Q.** What about the CC50 at 5 days [7] of the same compound?
**A.** Its CC50 at 5 days is at least 100 µM.

**Q.** With `CNC(=O)[C@@H]1CC(F)(F)CN1CC1=C(C(=O)OC)C(C)(c2ccc(F)cc2)N=C(c2nccs2)N1` (stereo partly drawn) [Example 50, 6-((S)-4,4-difluoro-2-methylcarbamoyl-pyrrolidin-1-ylmethyl)-4-(4-fluoro-phenyl)-4-methyl-2-thiazol-2-yl-1,4-dihydro-pyrimidine-5-carboxylic acid methyl ester] as the compound, how does the pEC50 [6] read?
**A.** The pEC50 was 6.22.

**Q.** What about the CC50 at 5 days [7] of the same compound?
**A.** Its CC50 at 5 days is at least 100 µM.

**Q.** Which results are given for `COC(=O)C1=C(CN2CC(F)(F)C[C@H]2C(=O)O)NC(c2nccs2)=N[C@@]1(C)c1ccc(F)c(F)c1` [Example 14, (S)-6-((S)-2-Carboxy-4,4-difluoro-pyrrolidin-1-ylmethyl)-4-(3,4-difluoro-phenyl)-4-methyl-2-thiazol-2-yl-1,4-dihydro-pyrimidine-5-carboxylic acid methyl ester]?
**A.** pEC50 [6]: 6.70; CC50 at 5 days [7]: > 100 µM

**Q.** With `COC(=O)C1=C(CN2CC(F)(F)C[C@H]2C(=O)O)NC(c2ncc(C)s2)=NC1(C)c1ccc(F)cc1` (stereo partly drawn) [Example 19, 6-((S)-2-Carboxy-4,4-difluoro-pyrrolidin-1-ylmethyl)-4-(4-fluoro-phenyl)-4-methyl-2-(5-methyl-thiazol-2-yl)-1,4-dihydro-pyrimidine-5-carboxylic acid methyl ester] as the compound, how does the pEC50 [6] read?
**A.** Its pEC50 is 4.78.

**Q.** What about the CC50 at 5 days [7] of the same compound?
**A.** The CC50 at 5 days was over 100 µM.

**Q.** With `COC(=O)C1=C(CN2CCOC[C@@H]2C(=O)O)NC(c2ccc(F)cn2)=NC1(C)c1ccc(F)cc1` (stereo partly drawn) [Example 9, 4-[6-(4-Fluoro-phenyl)-2-(5-fluoro-pyridin-2-yl)-5-methoxycarbonyl-6-methyl-3,6-dihydro-pyrimidin-4-ylmethyl]-morpholine-(R)-3-carboxylic acid] as the compound, how does the pEC50 [6] read?
**A.** The pEC50 was 5.38.

**Q.** What about the CC50 at 5 days [7] of the same compound?
**A.** Its CC50 at 5 days is over 100 µM.
